Experimental findings from patent US4590209A, “Alkoxy-acyl carnitines and pharmaceutical compositions containing same” (Sigma-Tau Industrie Farmaceutiche Riunite S.p.A., priority 1980, dated 1986) are described below.

Series [1] has as its system adrenaline. Briefly: Adrenaline-antagonizing effect (adrenaline-induced mortality). It is filed as in vivo, male Albino Swiss mice. The note with it: mice, adrenaline after 30 minutes, mortality checked for 36 hours. The method, then:
Groups of ten male Albino Swiss mice, weighing 12-22 g, were intraperitoneally administered either with the compounds of the present invention or with saline (control) and, after 30 minutes, with adrenaline (treated) at a dose capable of bringing about death to 100% of the control animals due to ventricular fibrillation and cardiac lesions ensuing from increase in frequency, pressure and oxygen uptake from the myocardium.
Mortality was checked for 36 hours and the effect of the compounds expressed as percentage of surviving animals, is shown in the Table.

Series [2] deals with rabbit isolated heart. Description: Inotropic effect on isolated rabbit heart (Langendorff) after anoxia. The note with it: dose 10^-5 gl^-1, 10 minutes from the interruption of the anoxic period, percentage increase against controls. The method, then: Rabbit hearts isolated by the Langendorff method were perfused with oxygenized Ringer solution at 38.2° C. The isometric contractions, electrogardiogram and coronary flow were recorded using a "Battaglia-Rangoni" polygraph. By removing the oxygen from the perfusion fluid, metabolic damage was induced in the cardiac muscle, up to an 80% reduction in the cardiac contractile force.
Under these conditions of prolonged anoxia the aerobic glycolysis of the myocardium is slowed down, accompanied by the storage of acid catabolites due to both the accumulation of pyruvic acid and its conversion to lactic acid which cannot be utilized because of the depression of pyridine enzymes, such as LDH (lactodehydogenase). This has repercussions on the anaerobic glycolysis affecting an ever increasing number of enzymes, accompanied by a progressive and increasingly critical exhaustion of the myocardium. Thus a whole series of cardiac muscle fatigue levels occurs which can be observed by the behavior of the examined parameters, namely the contractile force, coronary flow, heart rate and cardiac rhythm. As soon as the contractile force was reduced by 80%, the perfusion fluid was once again oxygenized either without adding other compounds (controls) or with the addition of the compounds under examination.
In the Table there are shown the percentage value of increase against the controls.

Series [3] is described as follows: Acute toxicity (LD50), Weil method. The settings on record: mouse, in vivo, ip; mice, intraperitoneal; read-out: i.p. LD50. The source says:
Acute toxicity was investigated by using the method disclosed by Weil C. S. in "Tables for convenient calculation of median-effective dose (LD50 or ED50) and instructions in their use", Biometrics, 249-253, 1952.
The tolerance of the compounds under examination was investigated in mice after administration by the intraperitoneal or oral route. […] (see the Table).

The subject of series [4] is mice. Briefly: Antiarrhythmic / antifibrillatory effect, aconitine-induced arrhythmia (Nwangwu et al.). It is filed as in vivo. The method, then:
In order to evaluate the antiarrhythmic activity of the carnitine derivatives of this invention studied with in vivo tests in addition to and in comparison with the currently employed in vitro tests, the method disclosed by Nwangwu et al. (Arch. Inc. Pharmacodyn., 1977, 229, 219) was used.
According to this method an aconitine solution is injected into the caudal vein of mice and the onset time of arrhythmia and tachycardia after 2 to 60 minutes from administration of the compounds under examination is recorded.
The antiarrhythmic activity calculated from the increase in the latency time of the onset of the arrhythmias of the treated animals in comparison with the controls, is illustrated in the Table.

Structures can show the parent of a compound that is named as a salt.

As a reminder, the LD50 is the dose expected to kill half of the subjects tested. Turning to `COCCCC(=O)OC(CC(=O)O)C[N+](C)(C)C` (centres unmarked) [R = 4-methoxybutyryl, 4-methoxybutyryl carnitine], the “Antiadrenaline activity, % mortality reduction” value in series [1] (dose 50 mg kg^-1 i.p.) was found to be 78%. The “Inotropic effect, % of controls” value in series [2] is given as “+85%”. The LD50 in series [3] was determined as 1850 mg/kg. Besides, in series [4] (dose 25 mg kg^-1 i.v.), the “Antifibrillatory activity, % reduction” value was determined as 85%.

As to `CCOCCC(=O)OC(CC(=O)O)C[N+](C)(C)C` (centres unmarked) [R = 3-ethoxypropionyl, 3-ethoxypropionyl carnitine hydrochloride], the “Antiadrenaline activity, % mortality reduction” value in series [1] (dose 450 mg kg^-1 i.p.) is listed as 75%. The “Inotropic effect, % of controls” value in series [2] was “+95%”. The LD50 in series [3] stood at 1300 mg/kg. Moreover, the “Antifibrillatory activity, % reduction” value in series [4] (dose 300 mg kg^-1 i.v.) was determined as 80%.
